These compounds were tested on NL-RLuc virus (assay: Inhibition of HIV replication (NL-RLuc luciferase reporter virus in MT-2 cells)). Settings: Human immunodeficiency virus 1, MT2, 120 h, read-out: Activity.
Assay type: cell-based
In short: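 The read-out is Renilla luciferase expressed by replication-competent NL-RLuc (nef partly replaced), measured 5 days after infection of MT-2 cells grown with compound dilutions in 10% FBS RPMI. Median effect equation gives EC50 from ≥2 runs; A ≤100 nM, B 100 nM–1 uM, C >1 uM.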

Q: `Cc1nc(CO)c([C@H](OC(C)(C)C)C(=O)O)c(N2CCC(C)(C)CC2)c1-c1ccc(OCCc2ccc(F)cc2)cc1` [Example 1, (S)-2-(tert-Butoxy)-2-(4-(4,4-dimethylpiperidin-1-yl)-5-(4-(4-fluorophenethoxy)phenyl)-2-(hydroxymethyl)-6-methylpyridin-3-yl)acetic acid] was tested. Which EC50 did it give?
A: < 0.1 µM

Q: Which EC50 does the source give for `CC(=O)Nc1nc(C)c([C@H](OC(C)(C)C)C(=O)O)c(N2CCC(C)(C)CC2)c1-c1ccc(OCCc2ccc(F)cc2)cc1` [Example 47, (S)-2-(6-Acetamido-4-(4,4-dimethylpiperidin-1-yl)-5-(4-(4-fluorophenethoxy)phenyl)-2-methylpyridin-3-yl)-2-(tert-butoxy)acetic acid] here?
A: < 0.1 µM

Q: `CNCc1nc(C)c([C@H](OC(C)(C)C)C(=O)O)c(N2CCC(C)(C)CC2)c1-c1ccc2c(c1)CCN(Cc1ccc(F)cc1C)C2` [Example 114, (S)-2-(tert-Butoxy)-2-(4-(4,4-dimethylpiperidin-1-yl)-5-(2-(4-fluoro-2-methylbenzyl)-1,2,3,4-tetrahydroisoquinolin-6-yl)-2-methyl-6-((methylamino)methyl)pyridin-3-yl)acetic acid] was tested. Which EC50 did it give?
A: < 0.1 µM

Q: For `Cc1nc(COC(C)C)c(-c2ccc(OCCc3ccc(F)cc3)cc2)c(N2CCC(C)(C)CC2)c1[C@H](OC(C)(C)C)C(=O)O` [Example 9, (S)-2-(tert-Butoxy)-2-(4-(4,4-dimethylpiperidin-1-yl)-5-(4-(4-fluorophenethoxy)phenyl)-6-(isopropoxymethyl)-2-methylpyridin-3-yl)acetic acid], which EC50 is on record?
A: < 0.1 µM

Q: `Cc1nc(CCCN(C)C)c(-c2ccc(OCCc3ccc(F)cc3)cc2)c(N2CCC(C)(C)CC2)c1[C@H](OC(C)(C)C)C(=O)O` [Example 59, (S)-2-(tert-Butoxy)-2-(6-(3-(dimethylamino)propyl)-4-(4,4-dimethylpiperidin-1-yl)-5-(4-(4-fluorophenethoxy)phenyl)-2-methylpyridin-3-yl)acetic acid] was tested. Which EC50 did it give?
A: < 0.1 µM

Q: Which EC50 does the source give for `Cc1nc(COCCN2CCS(=O)(=O)CC2)c(-c2ccc(OCCc3ccc(F)cc3)cc2)c(N2CCC(C)(C)CC2)c1[C@H](OC(C)(C)C)C(=O)O` [Example 28, (S)-2-(tert-Butoxy)-2-(4-(4,4-dimethylpiperidin-1-yl)-6-((2-(1,1-dioxidothiomorpholino)ethoxy)methyl)-5-(4-(4-fluorophenethoxy)phenyl)-2-methylpyridin-3-yl)acetic acid] here?
A: < 0.1 µM

Q: With `COCc1ncc([C@H](OC(C)(C)C)C(=O)O)c(N2CCC(C)(C)CC2)c1-c1ccc(OCCc2ccc(F)cc2)cc1` [Example 183, (S)-2-(tert-Butoxy)-2-(4-(4,4-dimethylpiperidin-1-yl)-5-(4-(4-fluorophenethoxy)phenyl)-6-(methoxymethyl)pyridin-3-yl)acetic acid] as the compound, how does the EC50 read?
A: < 0.1 µM

Q: `Cc1nc(CN(C)CC2CCOCC2)c(-c2ccc(OCCc3ccc(F)cc3)cc2)c(N2CCC(C)(C)CC2)c1[C@H](OC(C)(C)C)C(=O)O` [Example 84, (S)-2-(tert-Butoxy)-2-(4-(4,4-dimethylpiperidin-1-yl)-5-(4-(4-fluorophenethoxy)phenyl)-2-methyl-6-((methyl((tetrahydro-2H-pyran-4-yl)methyl)amino)methyl)pyridin-3-yl)acetic acid] was tested. Which EC50 did it give?
A: < 0.1 µM

Q: For `Cc1cccc(Cl)c1CN1CCc2cc(-c3c(CO)nc(C)c([C@H](OC(C)(C)C)C(=O)O)c3N3CCC(C)(C)CC3)ccc2C1` [Example 165, (S)-2-(tert-butoxy)-2-(5-(2-(2-chloro-6-methylbenzyl)-1,2,3,4-tetrahydroisoquinolin-6-yl)-4-(4,4-dimethylpiperidin-1-yl)-6-(hydroxymethyl)-2-methylpyridin-3-yl)acetic acid], which EC50 is on record?
A: < 0.1 µM

Q: For `Cc1nc(CN2CCCC2)c(-c2ccc(OCCc3ccc(F)cc3)cc2)c(N2CCC(C)(C)CC2)c1[C@H](OC(C)(C)C)C(=O)O` [Example 75, (S)-2-(tert-Butoxy)-2-(4-(4,4-dimethylpiperidin-1-yl)-5-(4-(4-fluorophenethoxy)phenyl)-2-methyl-6-(pyrrolidin-1-ylmethyl)pyridin-3-yl)acetic acid], which EC50 is on record?
A: < 0.1 µM

Q: How did the EC50 turn out when `Cc1nc(CO)c(-c2ccc(OCCc3ccc(F)cc3)cc2)c(N2CCC(C)(C)CC2)c1[C@H](OC(C)(C)C)C(=O)O` [Example 2, (S)-2-(tert-Butoxy)-2-(4-(4,4-dimethylpiperidin-1-yl)-5-(4-(4-fluorophenethoxy)phenyl)-6-(hydroxymethyl)-2-methylpyridin-3-yl)acetic acid] was run?
A: < 0.1 µM

Q: How did the EC50 turn out when `Cc1cc(F)ccc1CN1CCc2cc(-c3c(CNC(=O)C(=O)N(C)C)nc(C)c([C@H](OC(C)(C)C)C(=O)O)c3N3CCC(C)(C)CC3)ccc2C1` [Example 142, (S)-2-(tert-Butoxy)-2-(6-((2-(dimethylamino)-2-oxoacetamido)methyl)-4-(4,4-dimethylpiperidin-1-yl)-5-(2-(4-fluoro-2-methylbenzyl)-1,2,3,4-tetrahydroisoquinolin-6-yl)-2-methylpyridin-3-yl)acetic acid] was run?
A: < 0.1 µM

Q: How did the EC50 turn out when `Cc1cc(F)ccc1CN1CCc2cc(-c3c(COC(C)C)nc(C)c([C@H](OC(C)(C)C)C(=O)O)c3N3CCC(C)(C)CC3)ccc2C1` [Example 158, (S)-2-(tert-Butoxy)-2-(4-(4,4-dimethylpiperidin-1-yl)-5-(2-(4-fluoro-2-methylbenzyl)-1,2,3,4-tetrahydroisoquinolin-6-yl)-6-(isopropoxymethyl)-2-methylpyridin-3-yl)acetic acid] was run?
A: < 0.1 µM

Q: For `COCCNC(=O)c1nc(C)c([C@H](OC(C)(C)C)C(=O)O)c(N2CCC(C)(C)CC2)c1-c1ccc(OCCc2ccc(F)cc2)cc1` [Example 39, (S)-2-(tert-Butoxy)-2-(4-(4,4-dimethylpiperidin-1-yl)-5-(4-(4-fluorophenethoxy)phenyl)-6-((2-methoxyethyl)carbamoyl)-2-methylpyridin-3-yl)acetic acid], which EC50 is on record?
A: < 0.1 µM

Q: For `CCOCc1nc(C)c([C@H](OC(C)(C)C)C(=O)O)c(N2CCC(C)(C)CC2)c1-c1ccc(OCCc2ccc(F)cc2)cc1` [Example 8, (S)-2-(tert-Butoxy)-2-(4-(4,4-dimethylpiperidin-1-yl)-6-(ethoxymethyl)-5-(4-(4-fluorophenethoxy)phenyl)-2-methylpyridin-3-yl)acetic acid], which EC50 is on record?
A: < 0.1 µM

Q: For `Cc1cc(F)ccc1CN1CCc2cc(-c3c(CNCc4ccncc4)nc(C)c([C@H](OC(C)(C)C)C(=O)O)c3N3CCC(C)(C)CC3)ccc2C1` [Example 124, (S)-2-(tert-Butoxy)-2-(4-(4,4-dimethylpiperidin-1-yl)-5-(2-(4-fluoro-2-methylbenzyl)-1,2,3,4-tetrahydroisoquinolin-6-yl)-2-methyl-6-(((pyridin-4-ylmethyl)amino)methyl)pyridin-3-yl)acetic acid], which EC50 is on record?
A: < 0.1 µM

Q: How did the EC50 turn out when `Cc1nc(CF)c(-c2ccc(OCCc3ccc(F)cc3)cc2)c(N2CCC(C)(C)CC2)c1[C@H](OC(C)(C)C)C(=O)O` [Example 5, (S)-2-(tert-Butoxy)-2-(4-(4,4-dimethylpiperidin-1-yl)-6-(fluoromethyl)-5-(4-(4-fluorophenethoxy)phenyl)-2-methylpyridin-3-yl)acetic acid] was run?
A: < 0.1 µM

Q: How did the EC50 turn out when `Cc1cc(F)ccc1CN1CCc2cc(-c3c(CN(C)CC4CCOCC4)nc(C)c([C@H](OC(C)(C)C)C(=O)O)c3N3CCC(C)(C)CC3)ccc2C1` [Example 137, (S)-2-(tert-Butoxy)-2-(4-(4,4-dimethylpiperidin-1-yl)-5-(2-(4-fluoro-2-methylbenzyl)-1,2,3,4-tetrahydroisoquinolin-6-yl)-2-methyl-6-((methyl((tetrahydro-2H-pyran-4-yl)methyl)amino)methyl)pyridin-3-yl)acetic acid] was run?
A: < 0.1 µM

Q: Which EC50 does the source give for `Cc1nc(CNC(C)C)c(-c2ccc(OCCc3ccc(F)cc3)cc2)c(N2CCC(C)(C)CC2)c1[C@H](OC(C)(C)C)C(=O)O` [Example 66, (S)-2-(tert-Butoxy)-2-(4-(4,4-dimethylpiperidin-1-yl)-5-(4-(4-fluorophenethoxy)phenyl)-6-((isopropylamino)methyl)-2-methylpyridin-3-yl)acetic acid] here?
A: < 0.1 µM

Q: With `Cc1cc(C)n(COCc2nc(C)c([C@H](OC(C)(C)C)C(=O)O)c(N3CCC(C)(C)CC3)c2-c2ccc(OCCc3ccc(F)cc3)cc2)n1` [Example 25, (S)-2-(tert-Butoxy)-2-(6-(((3,5-dimethyl-1H-pyrazol-1-yl)methoxy)methyl)-4-(4,4-dimethylpiperidin-1-yl)-5-(4-(4-fluorophenethoxy)phenyl)-2-methylpyridin-3-yl)acetic acid] as the compound, how does the EC50 read?
A: < 0.1 µM

Q: For `Cc1nc(COCC2CN(C(=O)OC(C)(C)C)C2)c(-c2ccc(OCCc3ccc(F)cc3)cc2)c(N2CCC(C)(C)CC2)c1[C@H](OC(C)(C)C)C(=O)O` [Example 21, (S)-2-(tert-Butoxy)-2-(6-(((1-(tert-butoxycarbonyl)azetidin-3-yl)methoxy)methyl)-4-(4,4-dimethylpiperidin-1-yl)-5-(4-(4-fluorophenethoxy)phenyl)-2-methylpyridin-3-yl)acetic acid], which EC50 is on record?
A: < 0.1 µM

Q: How did the EC50 turn out when `COCCNCc1nc(C)c([C@H](OC(C)(C)C)C(=O)O)c(N2CCC(C)(C)CC2)c1-c1ccc2c(c1)CCN(Cc1ccc(F)cc1C)C2` [Example 116, (S)-2-(tert-Butoxy)-2-(4-(4,4-dimethylpiperidin-1-yl)-5-(2-(4-fluoro-2-methylbenzyl)-1,2,3,4-tetrahydroisoquinolin-6-yl)-6-(((2-methoxyethyl)amino)methyl)-2-methylpyridin-3-yl)acetic acid] was run?
A: < 0.1 µM

Q: Which EC50 does the source give for `Cc1cc(F)ccc1CN1CCc2cc(-c3c(CN4CCC(C)(C)CC4)nc(C)c([C@H](OC(C)(C)C)C(=O)O)c3N3CCC(C)(C)CC3)ccc2C1` [Example 120, (S)-2-(tert-Butoxy)-2-(4-(4,4-dimethylpiperidin-1-yl)-6-((4,4-dimethylpiperidin-1-yl)methyl)-5-(2-(4-fluoro-2-methylbenzyl)-1,2,3,4-tetrahydroisoquinolin-6-yl)-2-methylpyridin-3-yl)acetic acid] here?
A: < 0.1 µM

Same assay, conditions: Human immunodeficiency virus 1, MT2, 120 h, read-out: EC50 μM

Q: How did the EC50 turn out when `Cc1nc(CO)c([C@H](OC(C)(C)C)C(=O)O)c(N2CCC(C)(C)CC2)c1-c1ccc(OCCc2ccc(F)cc2)cc1` [Example 1, (S)-2-(tert-Butoxy)-2-(4-(4,4-dimethylpiperidin-1-yl)-5-(4-(4-fluorophenethoxy)phenyl)-2-(hydroxymethyl)-6-methylpyridin-3-yl)acetic acid] was run?
A: 0.003 µM

Reference: patent US10351546B2, “Pyridin-3-yl acetic acid derivatives as inhibitors of human immunodeficiency virus replication” (priority 2015, dated 2019)
